# Measured values taken from PMC5418711, “Safety and efficacy of the choline analogue SAR97276 for malaria treatment: results of two phase 2, open-label, multicenter trials in African patients” (Malaria Journal, 2017).
# Several values for one entry are separate records, joined by “and”; a condition that tells them apart may be missing. Equal values may be shown once. Read-outs that look alike come from different tables or passages of the source.
# Experiments:
# [1] = Study 2: safety assessment (TEAEs, ECG, respiratory parameters); assay type: in vivo, human; conditions: for QTc interval - change from baseline Borderline: Incr. from B 30-60 ms / QTc interval - change from baseline Prolonged: Incr. from B > 60 ms / QTc interval Borderline: 431-450 ms (Boys); 451-470 ms (Girls) / QTc interval Prolonged: > 450 ms (Boys); > 470 ms (Girls) / QTc interval ≥ 500 ms: TEAE period
# Method: (§1) Study duration and follow-up In both studies, study duration was 28 days for each patient including a screening period of up to 12 h before inclusion into the study. Participants were hospitalized for at least 3 days (72 h) after the start of treatment. Follow-up visits were done on day 6, 8, 14 ± 2, 21 ± 2, 28 ± 2 (Study 1); and day 7, 14 ± 2, 21 ± 2, 28 ± 2 (Study 2). Patient examination Fever measurements and thick blood smears were done every 6 h until 72 h and at each follow-up visit. Parasitemia was determined microscopically by Giemsa stained thick blood smear by two trained microscopists blinded to each other. Safety assessment Safety analysis was based on AEs including vision assessment recorded from baseline until day 28 (in binocular conditions, for near and distant visual acuity, using standard optotypes appropriate for patient’s age and reading ability. Tests with standard corrective glasses (+3 and −3 diopters) were performed in case of visual adverse events, to assess whether vision improved or worsened with corrective glasses). Laboratory tests including hematology, biochemistry and urine analysis were done at baseline, day 2, 4, 28 (Study 1), or baseline, day 2, 4, 14, 28 (Study 2); vital signs were recorded at baseline, every 6 h until 72 h and on each follow up visit. An electrocardiogram (ECG) was done at baseline, day 4, 28 (Study 1), or baseline, 48 h, 72 h, day 28 (Study 2). For Study 2 respiratory parameters (respiratory rate, peak flow, efficiency of cough) were also checked at baseline and 30 min after first dose on day 1, 2 and 3.
# Treatment emergent adverse events (TEAEs) were defined as AEs that developed or worsened during the treatment period until day 6 following the end of study treatment.
# P. falciparum = assay: Study 2: phase 2 randomized controlled trial, efficacy in teenagers with uncomplicated falciparum malaria; assay type: in vivo, Plasmodium falciparum; conditions: for Median PRR (parasite reduction ratio: parasitemia at baseline/parasitemia at 72 h): N=8, at 72 h
# Text: The study was designed to enroll up to 180 participants. A randomized, controlled, age de-escalating trial design was applied in Study 2 to assess SAR97276A as a 3-day regimen administered IM to underage malaria patients. […] The study was planned to be conducted first in teenagers (age 12–17 years) and then in children (age 2–11 years).
# Study 2 only enrolled uncomplicated malaria patients with P. falciparum ≥2000 parasites/µL. Two age groups were planned: Teenager aged 12–17 years and children aged 2–11 years. SAR97276A was planned to be administered only by IM injection.
# as §1, with “Safety assessment Safety analysis was based on AEs including vision assessment recorded from baseline until day 28 (in binocular conditions, for near and distant visual acuity, using standard optotypes appropriate for patient’s age and reading ability. Tests with standard corrective glasses (+3 and −3 diopters) were performed in case of visual adverse events, to assess whether vision improved or worsened with corrective glasses).” left out
# Primary endpoint consisted of two criteria: (1) parasite clearance at 72 h analyzed by thick blood smear and (2) measurement of parasite reduction ratio (PRR: parasitemia at baseline/parasitemia at 72 h).
# Sample size was calculated based on the parasite reduction ratio (PRR). Details are described in the supplementary information (see Additional file 4). PRR was calculated by: parasitemia at baseline/parasitemia at 72 h. For patients who prematurely discontinued study treatment the parasitemia at 72 h was replaced by last measurement of parasitemia or last measurement before rescue therapy for calculation of PRR at 72 h.
# Parasite clearance time (PCT), PC50 and PC90 were calculated by Kaplan–Meier method. Interim analysis was to be performed following completion of each cohort.
# Study 2: The patients were monitored up to day 28. […] The current available recommended rescue therapy as recommended by local guidelines was given. Treatment failures were described as early and late treatment failures.
# Late treatment failure was defined as development of severe malaria after day 3 after first study drug administration in presence of parasitemia, and /or parasitemia on day 4 - 14 with axillary temperature ≥ 37.5°C, and /or any additional antimalarial therapy not specified in the study protocol.
# malaria mouse model = system: malaria mouse model; design: method as in PMID 11847346, PMID 15492221, PMID 12878525; conditions: cited from earlier work; for Curative 4-day dose: mouse model
# [2] = Group 2A: 3 days IM once daily 0.5 mg/kg, teenagers, N=8
# [3] = Group 2A: 3 days IM once daily 0.5 mg/kg, teenagers, N=8, baseline 205
# [4] = Group 2A: 3 days IM once daily 0.5 mg/kg, teenagers
# [5] = Group 2B: 3 days IM twice daily 0.25 mg/kg, teenagers, N=8
# [6] = Group 2B: 3 days IM twice daily 0.25 mg/kg, teenagers, N=8, baseline 185
# [7] = Group 2B: 3 days IM twice daily 0.25 mg/kg, teenagers
# [8] = Group 2A: 3 days IM once daily 0.5 mg/kg, N=8
# [9] = Group 2B: 3 days IM twice daily 0.25 mg/kg, N=8
smiles,measurement,setting,value
Cc1c(CCO)sc[n+]1CCCCCCCCCCCC[n+]1csc(CCO)c1C [SAR97276A],Patients with TEAE leading to treatment discontinuation,[1]; [2],2 (25%)
same,Patients with any TEAE,[1]; [2],8 (100%)
same,Patients with any serious AE,[1]; [2],4 (50%)
same,TEAE: Decreased appetite,[1]; [2],0
same,TEAE: Gastrointestinal disorders,[1]; [2],4 (50%)
same,TEAE: Headache,[1]; [2],0
same,TEAE: Hepatitis B,[1]; [2],1 (13%)
same,TEAE: Jaundice,[1]; [2],1 (13%)
same,TEAE: Lacrimation increased,[1]; [2],1 (13%)
same,TEAE: Malaria,[1]; [2],7 (88%)
same,TEAE: Neutropenia,[1]; [2],0
same,TEAE: Pyrexia,[1]; [2],0
same,TEAE: Vertigo,[1]; [2],1 (12.5%)
same,TEAE: Vision blurred,[1]; [2],1 (13%)
same,"Peakflow, change from baseline on D1 0.30 h",[1]; [3],-15.0 median L/min
same,"Peakflow, change from baseline on D2 24.30 h",[1]; [3],4.0 median L/min
same,"Peakflow, change from baseline on D23 48.30 h",[1]; [3],45.0 median L/min
same,QTc interval - change from baseline Borderline: Incr. from B 30-60 ms,[1]; [4],2/8
same,QTc interval - change from baseline Prolonged: Incr. from B > 60 ms,[1]; [4],0/8
same,QTc interval Borderline: 431-450 ms (Boys); 451-470 ms (Girls),[1]; [4],3/8
same,QTc interval Prolonged: > 450 ms (Boys); > 470 ms (Girls),[1]; [4],0/8
same,QTc interval ≥ 500 ms,[1]; [4],0/8
same,Patients with TEAE leading to treatment discontinuation,[1]; [5],2 (25%)
same,Patients with any TEAE,[1]; [5],5 (63%)
same,Patients with any serious AE,[1]; [5],2 (25%)
same,TEAE: Decreased appetite,[1]; [5],1 (13%)
same,TEAE: Gastrointestinal disorders,[1]; [5],1 (13%)
same,TEAE: Headache,[1]; [5],0
same,TEAE: Jaundice,[1]; [5],0
same,TEAE: Lacrimation increased,[1]; [5],0
same,TEAE: Malaria,[1]; [5],4 (50%)
same,TEAE: Neutropenia,[1]; [5],2 (25%)
same,TEAE: Pyrexia,[1]; [5],0
same,TEAE: Vertigo,[1]; [5],0
same,TEAE: Vision blurred,[1]; [5],0
same,"Peakflow, change from baseline on D1 0.30 h",[1]; [6],2.5 median L/min
same,"Peakflow, change from baseline on D2 24.30 h",[1]; [6],5.0 median L/min
same,"Peakflow, change from baseline on D23 48.30 h",[1]; [6],-10.0 median L/min
same,QTc interval - change from baseline Borderline: Incr. from B 30-60 ms,[1]; [7],0/8
same,QTc interval - change from baseline Prolonged: Incr. from B > 60 ms,[1]; [7],0/8
same,QTc interval Borderline: 431-450 ms (Boys); 451-470 ms (Girls),[1]; [7],2/8
same,QTc interval Prolonged: > 450 ms (Boys); > 470 ms (Girls),[1]; [7],2/8
same,QTc interval ≥ 500 ms,[1]; [7],0/8
same,Overall safety profile,[1]; Study 2,good
same,"Patients with a TEAE who discontinued study treatment and received rescue treatment, total",[1]; Study 2,Four
same,Respiratory parameters: untoward effect,[1]; Study 2,no indication for an untoward effect
same,SAEs: relation to study treatment,[1]; Study 2,not related
same,"Patients who had a SAE, total","[1]; Study 2, all in the SAR97276A treatment groups",6
same,Neutrophil count in the two patients with neutropenia who discontinued treatment,"[1]; Study 2, day 2, returned to normal values at 72 h after treatment start",0.99 giga/L and 0.91 giga/L
same,Patients with a SAE with persistence of uncomplicated malaria,"[1]; Study 2, of six SAE patients",five
same,Early treatment failures,P. falciparum; [8],4
same,Late treatment failures,P. falciparum; [8],3
same,Patients classified as treatment failures,P. falciparum; [8],7/8
same,Patients who received rescue treatment during the trial,P. falciparum; [8],8/8
same,Median PRR (parasite reduction ratio: parasitemia at baseline/parasitemia at 72 h),P. falciparum; Group 2A: 3 days IM once daily 0.5 mg/kg,22.5 (0.4–6280.0)
same,Parasitemia between 6 and 12 h after the start of treatment,"P. falciparum; Group 2A: 3 days IM once daily 0.5 mg/kg, not seen in the other groups",Increase of parasitemia
same,Early treatment failures,P. falciparum; [9],4
same,Late treatment failures,P. falciparum; [9],1
same,Patients classified as treatment failures,P. falciparum; [9],5/8
same,Patients who received rescue treatment during the trial,"P. falciparum; Group 2B: 3 days IM twice daily 0.25 mg/kg, N=8, 0.25 mg/kg",5 out of 8 and 5/8
same,Median PRR (parasite reduction ratio: parasitemia at baseline/parasitemia at 72 h),P. falciparum; Group 2B: 3 days IM twice daily 0.25 mg/kg,12.0 (0.3–83.1)
same,Efficacy in malaria mouse model,malaria mouse model,highly efficacious
same,Curative 4-day dose,malaria mouse model; orally,20 to 45 mg/kg/day
same,Curative 4-day dose,malaria mouse model; parenterally,1 mg/kg/day
